In PMC5444705 (Oncotarget, 2017):
Where two headings read alike, the source gives them in different places.

What was measured:
Huh7 cells = test: MTT assay, Huh7; format: cell-based; details: Homo sapiens
Description: (§1) HepG2, Hep3B, Huh7 or L02 cells were seeded in 96-well plates at a density of 5 × 10^3 cells per well. […] After 24 and 48 h of co-incubation, used media were removed and cells were washed twice with PBS. Fresh medium containing 20 μl of MTT ([…]) was added in and cells were cultured for an additional 4 h at 37°C in a 5% CO2incubator. After that, media were removed and 200 μl of DMSO was added in. The optical density value was determined by the microplate reader (Multiskan MK3, Thermo Fisher Scientific, Atlanta, GA, USA) at 492 nm.

[1] = mouse, in vivo, 4 mg/kg
Description: To determine the toxicity of WND and WNP, we collected tissues from the mice used in efficacy study for histological analysis. […] For the efficacy study, 4 × 10^6 HepG2 cells were injected in the front armpit of the Balb/C nude mice. […] The tumor sizes were measured every other day and any death of the mice was recorded. […] TUNEL, Ki67 and hematoxylin and eosin (H&E) staining were performed by using the resected tumor tissue from mice for efficacy study. The tissue sections were examined and photographed with a microscope (Olympus SZX12, Japan) connected to a PC.

HepG2 xenograft tumor = test: Anti-tumor efficacy in HepG2 xenograft tumor mouse model; format: in vivo, Balb/C nude mice; details: tail vein injection, 4 mg/kg (WCN-21), 25th day after injection
Description: Tumor volume and mouse body weights were recorded during drug administration period. The mice were sacrificed at 25th day after the injection and tumors were collected for histology examination.
For the efficacy study, 4 × 10^6 HepG2 cells were injected in the front armpit of the Balb/C nude mice. […] The tumor sizes were measured every other day and any death of the mice was recorded. […] TUNEL, Ki67 and hematoxylin and eosin (H&E) staining were performed by using the resected tumor tissue from mice for efficacy study. The tissue sections were examined and photographed with a microscope (Olympus SZX12, Japan) connected to a PC.

Hep3B cells = test: MTT assay, Hep3B; format: cell-based; details: Homo sapiens
Description: as §1

L02 cells = test: MTT assay, L02; format: cell-based; details: Homo sapiens
Description: as §1

HepG2 cells = test: MTT assay, HepG2; format: cell-based; details: Homo sapiens
Description: as §1

For CC[C@@]1(O)C(=O)OCc2c1cc1n(c2=O)Cc2cc3c(CN(C)C)c(O)ccc3nc2-1 [Topotecan], the IC50 (Huh7 cells; Huh 7, 24 h) was 500 ± 69 nM, the IC50 (Huh7 cells; Huh 7, 48 h) was 117 ± 48 nM and the Body weight change [1] was “significant body weight loss”. For the same compound, the “Histological analysis of hearts, livers, spleens, lungs and kidneys” value [1] was “myocardial fiber fracture and cardiocytes necrosis in hearts, inflammatory infiltration in livers, atrophied white pulp in spleens and disorganization of renal corpuscles in kidneys”, the “Tumor size at 25th day” value (HepG2 xenograft tumor) was 837 mm^3 and the IC50 (Hep3B cells; 24 h) was 462 ± 20 nM. For the same compound, the IC50 (Hep3B cells; 48 h) was 112 ± 2.4 nM, the IC50 (L02 cells; L02, 24 or 48 h, time not specified, read-out: IC50 in L02 cells) was greater than 500 nM and the IC50 (L02 cells; L02, 24 h, MTT, read-out: IC50) was greater than 500 nM. For the same compound, the IC50 (L02 cells; L02, 48 h, MTT, read-out: IC50) was greater than 500 nM, the IC50 (HepG2 cells; HepG2, 24 h) was 1590 ± 20.6 nM and the IC50 (HepG2 cells; HepG2, 48 h) was 285 ± 9 nM.
